Toxic doses and inconclusive results are not listed. Rule as the data show it: active = T/C of 150% or more; inactive = T/C below 125%.
Test system: L1210 leukemia ip in BDF1 mice, survival T/C
Experiment: NCI In Vivo Anticancer Drug Screen. Data for tumor model L1210 Leukemia (intraperitoneal) in B6D2F1 (BDF1) mice
Details: endpoint: mean survival time, higher = longer survival
Outline: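 Antitumor effect is assessed in tumor-bearing animals. Survival in the compound arm is compared with a vehicle-dosed control arm and expressed as their quotient.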

[1] = dose: 25.0 mg/kg/injection, schedule: Q04DX003 (ip), vehicle: saline with Tween-80
[2] = dose: 50.0 mg/kg/injection, schedule: Q04DX003 (ip), vehicle: saline with Tween-80
[3] = dose: 100.0 mg/kg/injection, schedule: Q04DX003 (ip), vehicle: saline with Tween-80
[4] = dose: 75.0 mg/kg/injection, schedule: Q01DX009 (ip), vehicle: Klucel (hydroxypropylcellulose) (HPC)
[5] = dose: 100.0 mg/kg/injection, schedule: Q04DX003 (ip), vehicle: Klucel (hydroxypropylcellulose) (HPC)
[6] = dose: 150.0 mg/kg/injection, schedule: Q01DX009 (ip), vehicle: Klucel (hydroxypropylcellulose) (HPC)
[7] = dose: 200.0 mg/kg/injection, schedule: Q04DX003 (ip), vehicle: Klucel (hydroxypropylcellulose) (HPC)
[8] = dose: 400.0 mg/kg/injection, schedule: Q04DX003 (ip), vehicle: Klucel (hydroxypropylcellulose) (HPC)
[9] = dose: 100.0 mg/kg/injection, schedule: Q01DX009 (ip), vehicle: Klucel (hydroxypropylcellulose) (HPC)
[10] = dose: 200.0 mg/kg/injection, schedule: Q01DX009 (ip), vehicle: Klucel (hydroxypropylcellulose) (HPC)
[11] = dose: 400.0 mg/kg/injection, schedule: Q01DX009 (ip), vehicle: Klucel (hydroxypropylcellulose) (HPC)
[12] = dose: 50.0 mg/kg/injection, schedule: Q01DX001 (ip), vehicle: carboxymethylcellulose (CMC)
[13] = dose: 100.0 mg/kg/injection, schedule: Q01DX001 (ip), vehicle: carboxymethylcellulose (CMC)
[14] = dose: 200.0 mg/kg/injection, schedule: Q01DX001 (ip), vehicle: carboxymethylcellulose (CMC)
[15] = dose: 400.0 mg/kg/injection, schedule: Q01DX001 (ip), vehicle: carboxymethylcellulose (CMC)
[16] = dose: 25.0 mg/kg/injection, schedule: Q01DX009 (ip), vehicle: saline with Tween-80
[17] = dose: 200.0 mg/kg/injection, schedule: Q04DX003 (ip), vehicle: saline with Tween-80
[18] = dose: 400.0 mg/kg/injection, schedule: Q04DX003 (ip), vehicle: saline with Tween-80
[19] = dose: 50.0 mg/kg/injection, schedule: Q04DX003 (ip), vehicle: Klucel (hydroxypropylcellulose) (HPC)

Measured: T/C

CCCCN(CCC#N)CCCC
inactive: [1] 111 % of control | dose: 29.5 mg/kg/injection, schedule: Q01DX009 (ip), vehicle: saline with Tween-80 107 % of control | [2] 105 % of control | dose: 59.0 mg/kg/injection, schedule: Q01DX009 (ip), vehicle: saline with Tween-80 107 % of control | [3] 97 % of control | dose: 118.0 mg/kg/injection, schedule: Q01DX009 (ip), vehicle: saline with Tween-80 108 % of control

CC(=O)O/N=C1\c2ccccc2-c2ccc([N+](=O)[O-])cc21
inactive: [4] 93 % of control | [5] 97 % of control | [6] 86 % of control | [7] 95 % of control | dose: 300.0 mg/kg/injection, schedule: Q01DX009 (ip), vehicle: Klucel (hydroxypropylcellulose) (HPC) 86 % of control | [8] 100 % of control

O=COCC1CC2C=CC1C2 (stereo not drawn)
inactive: dose: 222.0 mg/kg/injection, schedule: Q01DX Z (ip), vehicle: saline 98 % of control | dose: 333.0 mg/kg/injection, schedule: Q01DX Z (ip), vehicle: saline 102 % of control | dose: 500.0 mg/kg/injection, schedule: Q01DX Z (ip), vehicle: saline 97 % of control

Clc1cc(Cl)c2c(c1)Cc1cc(Cl)cc(Cl)c1-2
inactive: [9] 94 % of control | [5] 92 % of control | [10] 91 % of control | [7] 89 % of control | [11] 87 % of control | [8] 102 % of control

Cc1cc(C)c(S(=O)(=O)Nc2cc([N+](=O)[O-])ccc2C)c(C)c1
inactive: [9] 97 % of control | [10] 92 % of control | [11] 92 % of control

O=C1c2cc([N+](=O)[O-])ccc2-c2cc(F)ccc21
inactive: [12] 104 % of control | [13] 95 % of control | [14] 93 % of control | [15] 90 % of control

CC1=CCC(=O)C2(C)CC(O)C(C(C)C(=O)O)C=C12 (stereo not drawn)
inactive: dose: 100.0 mg/kg/injection, schedule: Q04DX003 (ip), vehicle: acetone 97 % of control | dose: 200.0 mg/kg/injection, schedule: Q04DX003 (ip), vehicle: acetone 95 % of control | dose: 400.0 mg/kg/injection, schedule: Q04DX003 (ip), vehicle: acetone 105 % of control

Cc1ccc2ccccc2c1CC(=O)NN
inactive: [5] 102 % of control | [7] 104 % of control | [8] 104 % of control

CC(C)(C)CC(C)(C)CC(C)(C)NCCCN
inactive: dose: 12.5 mg/kg/injection, schedule: Q01DX009 (ip), vehicle: saline with Tween-80 102 % of control | [16] 93 % of control | [1] 90 % of control | [2] 97 % of control | [3] 96 % of control

COc1ccc2[nH]c(-c3ccccc3)cc2c1
inactive: [16] 100 % of control | dose: 50.0 mg/kg/injection, schedule: Q01DX009 (ip), vehicle: saline with Tween-80 108 % of control | dose: 100.0 mg/kg/injection, schedule: Q01DX009 (ip), vehicle: saline with Tween-80 101 % of control

CC(=O)N1C(=O)C2(Nc3ccccc3N2)c2ccccc21
inactive: [13] 87 % of control | [14] 87 % of control | [15] 96 % of control

COC(=O)C(CSc1ccccc1)NC(=O)c1ccccc1 (stereo not drawn)
inactive: [5] 101 % of control | [7] 114 % of control | [8] 96 % of control

COC(=O)C1CC(OS(=O)(=O)c2ccc(C)cc2)CN1C(=O)OCc1ccccc1 (stereo not drawn)
inactive: [3] 102 % of control | [17] 94 % of control | [18] 92 % of control

O=C1C(=O)C2=C(NCCC2)C(O)=C1Cl
inactive: dose: 100.0 mg/kg/injection, schedule: Q01DX001 (ip), vehicle: water 93 % of control | dose: 200.0 mg/kg/injection, schedule: Q01DX001 (ip), vehicle: water 95 % of control | dose: 400.0 mg/kg/injection, schedule: Q01DX001 (ip), vehicle: water 98 % of control

CCOC(=O)C1=CCC(n2cc(F)c(=O)[nH]c2=O)O1 (stereo not drawn)
inactive: [3] 98 % of control | [17] 102 % of control | [18] 98 % of control

CC(/C=N/NC(N)=O)=N\NC(N)=O
inactive: dose: 15.0 mg/kg/injection, schedule: Q01DX Z (ip), vehicle: saline 107 % of control | dose: 30.0 mg/kg/injection, schedule: Q01DX Z (ip), vehicle: saline 107 % of control | dose: 60.0 mg/kg/injection, schedule: Q01DX Z (ip), vehicle: saline 89 % of control | dose: 60.0 mg/kg/injection, schedule: Q01DX Z (oral), vehicle: saline 91 % of control | dose: 120.0 mg/kg/injection, schedule: Q01DX Z (oral), vehicle: saline 89 % of control | dose: 240.0 mg/kg/injection, schedule: Q01DX Z (oral), vehicle: saline 91 % of control | dose: 480.0 mg/kg/injection, schedule: Q01DX Z (oral), vehicle: saline 91 % of control

CCOC(=O)c1cc([N+](=O)[O-])c([N+](=O)[O-])cc1Cl
inactive: dose: 12.5 mg/kg/injection, schedule: Q04DX003 (ip), vehicle: Klucel (hydroxypropylcellulose) (HPC) 102 % of control | dose: 25.0 mg/kg/injection, schedule: Q04DX003 (ip), vehicle: Klucel (hydroxypropylcellulose) (HPC) 103 % of control | [19] 98 % of control

NC(N)=N/N=C(\C=C\c1ccccc1)C(=O)O
inactive: dose: 240.0 mg/kg/injection, schedule: Q01DX Z (ip), vehicle: methylcellulose (MC) 102 % of control | dose: 360.0 mg/kg/injection, schedule: Q01DX Z (ip), vehicle: methylcellulose (MC) 100 % of control | dose: 480.0 mg/kg/injection, schedule: Q01DX Z (ip), vehicle: methylcellulose (MC) 96 % of control

CCOC(=O)C1CN(C2CCCCC2)CCC1=O (stereo not drawn)
inactive: dose: 18.75 mg/kg/injection, schedule: Q01DX009 (ip), vehicle: saline 93 % of control | dose: 37.5 mg/kg/injection, schedule: Q01DX009 (ip), vehicle: saline 92 % of control | dose: 37.5 mg/kg/injection, schedule: Q04DX003 (ip), vehicle: saline 98 % of control | dose: 75.0 mg/kg/injection, schedule: Q01DX001 (ip), vehicle: saline 102 % of control | dose: 75.0 mg/kg/injection, schedule: Q01DX009 (ip), vehicle: saline 93 % of control | dose: 75.0 mg/kg/injection, schedule: Q04DX003 (ip), vehicle: saline 100 % of control | dose: 150.0 mg/kg/injection, schedule: Q01DX001 (ip), vehicle: saline 95 % of control | dose: 150.0 mg/kg/injection, schedule: Q04DX003 (ip), vehicle: saline 94 % of control

Nc1nc(N)nc(CCCCCc2nc(N)nc(N)n2)n1
inactive: [12] 93 % of control | [13] 93 % of control | [15] 95 % of control

N#Cc1cnc(N)nc1N
inactive: [19] 113 % of control | dose: 75.0 mg/kg/injection, schedule: Q01DX001 (ip), vehicle: carboxymethylcellulose (CMC) 92 % of control | [4] 102 % of control | [5] 97 % of control | dose: 150.0 mg/kg/injection, schedule: Q01DX001 (ip), vehicle: carboxymethylcellulose (CMC) 92 % of control | [6] 102 % of control | [7] 108 % of control

Reference: PubChem BioAssay AID248 (DTP/NCI, 2004)
